Data reported in US20050142104A1, “Methods of using and compositions comprising PDE4 modulators for the treatment and management of asbestos-related diseases and disorders” (priority 2003, published 2005).

Tests used:
TNF-α production = experiment: In vitro studies: inhibition of TNF-α production following LPS-stimulation of human PBMC and human whole blood; type: cell-based; details: comparator thalidomide
Protocol: In a specific embodiment, the pharmacological properties of 3-(3,4-dimethoxy-phenyl)-3-(1-oxo-1,3-dihydro-isoindol-2-yl)-propionamide are characterized in in vitro studies. Studies examine the effects of the compound on the production of various cytokines. Inhibition of TNF-α production following LPS-stimulation of human PBMC and human whole blood by the compound is investigated in vitro. The IC50's of the compound for inhibiting production of TNF-α are measured. […] The pharmacological effects of 3-(3,4-dimethoxy-phenyl)-3-(1-oxo-1,3-dihydro-isoindol-2-yl)-propionamide may derive from its action as an inhibitor of the generation of inflammatory cytokines.

[1] = Clinical studies in unresectable or relapsed mesothelioma patients; type: in vivo, human; details: 400 mg as a continuous oral daily dose; mesothelioma patients not responding to conventional therapy
Protocol: Clinical trials with the administration of a PDE4 modulator in an amount of from about 1 mg to about 1,000 mg, from about 1 mg to about 500 mg, or from about 1 mg to about 250 mg per day are conducted in patients with asbestosis, malignant mesothelioma, or malignant pleural effusion mesothelioma syndrome. In a specific embodiment, patients receive about 1 mg to about 1000 mg/day of 3-(3,4-dimethoxy-phenyl)-3-(1-oxo-1,3-dihydro-isoindol-2-yl)-propionamide alone or in combination with vinorelbine. Patients who experience clinical benefit are permitted to continue on treatment.
Other clinical studies are performed using 3-(3,4-dimethoxy-phenyl)-3-(1-oxo-1,3-dihydro-isoindol-2-yl)-propionamide in unresectable or relapsed mesothelioma patients that have not responded to conventional therapy. In one embodiment, 3-(3,4-dimethoxy-phenyl)-3-(1-oxo-1,3-dihydro-isoindol-2-yl)-propionamide is administered in an amount of about 1 mg to about 1,000 mg/day to the patients. Treatment with 400 mg as a continuous oral daily dose is well-tolerated.

## COc1ccc(C(CC(N)=O)N2Cc3ccccc3C2=O)cc1OC (centres unmarked) [3-(3,4-Dimethoxy-phenyl)-3-(1-oxo-1,3-dihydro-isoindol-2-yl)-propionamide]
TNF-α production
  pharmacological activity profile, potency relative to thalidomide: five to fifty times more potent than thalidomide
[1]
  tolerability: well-tolerated
